Assay results reported in ChEMBL document CHEMBL1201862, “PubChem BioAssay data set” (2004).
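Step 1: Grow cells in 96-well plates. Step 2: Expose to compound for 48 hours at 5 concentrations. Step 3: Interpolate endpoints linearly; if unreached, use highest concentration. GI50 = concentration required for 50% inhibition of growth.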 Activity calls are given as the source filed them. Cut-off read from the data, not from the text of the source: active = GI50 up to about 1.1 µM and inactive = higher.

Key:
Test in all cases: NCI tumour cell line growth inhibition, 48 h
SW-620 = test system: SW-620
HT-29 = test system: HT-29
NCI-H226 = test system: NCI-H226
OVCAR-4 = test system: OVCAR-4
HOP-62 = test system: HOP-62
SK-MEL-5 = test system: SK-MEL-5
LOX IMVI = test system: LOX IMVI
SK-MEL-2 = test system: SK-MEL-2
SF-295 = test system: SF-295
OVCAR-3 = test system: OVCAR-3
UO-31 = test system: UO-31
Malme-3M = test system: Malme-3M
CCRF-CEM = test system: CCRF-CEM
DMS-273 = test system: DMS-273
RXF 393 = test system: RXF 393
IGROV-1 = test system: IGROV-1
HOP-92 = test system: HOP-92
KM12 = test system: KM12
NCI-H23 = test system: NCI-H23
DMS-114 = test system: DMS-114
A549 = test system: A549
NCI-H522 = test system: NCI-H522
A498 = test system: A498
UACC-257 = test system: UACC-257
CAKI-1 = test system: CAKI-1
SK-MEL-28 = test system: SK-MEL-28
MOLT-4 = test system: MOLT-4
786-0 = test system: 786-0
OVCAR-5 = test system: OVCAR-5
OVCAR-8 = test system: OVCAR-8
SNB-75 = test system: SNB-75
SNB-78 = test system: SNB-78
TK-10 = test system: TK-10
M14 = test system: M14
NCI-H460 = test system: NCI-H460
SR = test system: SR
HCT-116 = test system: HCT-116
DLD-1 = test system: DLD-1
HCC 2998 = test system: HCC 2998
LXFL 529 = test system: LXFL 529
HCT-15 = test system: HCT-15
SK-OV-3 = test system: SK-OV-3
UACC-62 = test system: UACC-62
HOP-18 = test system: HOP-18
SF-539 = test system: SF-539
SN12C = test system: SN12C
COLO 205 = test system: COLO 205
U-251 = test system: U-251
SF-268 = test system: SF-268
RPMI-8226 = test system: RPMI-8226
HL-60 = test system: HL-60
M19-MEL = test system: M19-MEL
ACHN = test system: ACHN
K562 = test system: K562
KM-20L2 = test system: KM-20L2
SNB-19 = test system: SNB-19
EKVX = test system: EKVX

Measured: GI50

CN(C)CCSc1nccc(-c2cc3ccccc3s2)n1
inactive: SW-620 19 µM | HT-29 9.06 µM | NCI-H226 14.9 µM | OVCAR-4 38.5 µM | HOP-62 23.8 µM | SK-MEL-5 14.3 µM | LOX IMVI 17.1 µM | SK-MEL-2 17.3 µM | SF-295 16.2 µM | OVCAR-3 44.5 µM | UO-31 19.1 µM | Malme-3M 19.5 µM | CCRF-CEM 20 µM | DMS-273 15.9 µM | RXF 393 18.5 µM | IGROV-1 42.3 µM | HOP-92 2.87 µM | KM12 19.3 µM | NCI-H23 > 10 µM | DMS-114 23.2 µM | A549 17.6 µM | NCI-H522 20.1 µM | A498 20.1 µM | UACC-257 > 10 µM | CAKI-1 25.8 µM | SK-MEL-28 20 µM | MOLT-4 26.2 µM | 786-0 24.2 µM | OVCAR-5 27.2 µM | OVCAR-8 22.3 µM | SNB-75 54 µM | SNB-78 16.3 µM | TK-10 > 10 µM | M14 15.6 µM | NCI-H460 13.8 µM | SR 19.2 µM | HCT-116 24.4 µM | DLD-1 32.6 µM | HCC 2998 15.7 µM | LXFL 529 16.8 µM | SK-OV-3 37.3 µM | UACC-62 20.4 µM | SF-539 18.2 µM | SN12C 30.4 µM | COLO 205 17.2 µM | U-251 20.2 µM
active: HOP-18 < 0.01 µM
18.6 µM: HCT-15

CN(C)c1ccc(/C=C2\C=Cc3ccccc32)cc1
34.6 µM: HCT-15
inactive: SW-620 38.1 µM | HT-29 40.4 µM | SF-268 45.1 µM | OVCAR-4 50.5 µM | HOP-62 > 100 µM | SK-MEL-5 36.3 µM | LOX IMVI 47.2 µM | SK-MEL-2 90.6 µM | SF-295 34.3 µM | OVCAR-3 73.6 µM | RPMI-8226 35.3 µM | UO-31 20.2 µM | HL-60 27.9 µM | Malme-3M > 100 µM | CCRF-CEM 43.2 µM | M19-MEL > 100 µM | DMS-273 36.7 µM | RXF 393 17.9 µM | IGROV-1 53.7 µM | HOP-92 44.5 µM | KM12 49.7 µM | NCI-H23 35.6 µM | DMS-114 22.1 µM | A549 76.6 µM | NCI-H522 17.3 µM | A498 42.7 µM | ACHN > 100 µM | CAKI-1 78 µM | SK-MEL-28 43.6 µM | MOLT-4 32.1 µM | 786-0 61 µM | OVCAR-5 > 100 µM | OVCAR-8 94.8 µM | SNB-75 11.3 µM | TK-10 > 100 µM | M14 29.2 µM | NCI-H460 39.4 µM | SR 32.4 µM | HCT-116 33.1 µM | DLD-1 51.8 µM | HCC 2998 78 µM | LXFL 529 56.4 µM | SK-OV-3 45.9 µM | UACC-62 42.3 µM | HOP-18 > 100 µM | SF-539 50.7 µM | SN12C 39.9 µM | K562 28.8 µM | COLO 205 58.6 µM | U-251 55 µM | KM-20L2 42.6 µM | SNB-19 59.2 µM

COc1ccc2nc(NC(=O)C(=O)C(C#N)c3ccc(CC#N)cc3)sc2c1 (stereo unspecified)
> 100 µM: HCT-15
inactive: SW-620 > 100 µM | HT-29 > 100 µM | NCI-H226 > 100 µM | SF-268 > 100 µM | OVCAR-4 > 100 µM | HOP-62 > 100 µM | SK-MEL-5 > 100 µM | LOX IMVI > 100 µM | EKVX 33.5 µM | SK-MEL-2 > 100 µM | SF-295 > 100 µM | OVCAR-3 > 100 µM | RPMI-8226 > 100 µM | UO-31 54.6 µM | HL-60 > 100 µM | Malme-3M > 100 µM | CCRF-CEM > 100 µM | M19-MEL > 100 µM | DMS-273 > 100 µM | RXF 393 > 100 µM | IGROV-1 > 100 µM | HOP-92 96.8 µM | KM12 > 100 µM | NCI-H23 > 100 µM | A549 > 100 µM | NCI-H522 > 100 µM | A498 > 100 µM | ACHN > 100 µM | UACC-257 > 100 µM | CAKI-1 > 100 µM | SK-MEL-28 > 100 µM | MOLT-4 > 100 µM | 786-0 > 100 µM | OVCAR-5 > 100 µM | OVCAR-8 > 100 µM | SNB-75 > 100 µM | SNB-78 > 100 µM | TK-10 > 100 µM | M14 > 100 µM | NCI-H460 > 100 µM | HCT-116 > 100 µM | DLD-1 > 100 µM | HCC 2998 > 100 µM | LXFL 529 > 100 µM | SK-OV-3 > 100 µM | UACC-62 92.9 µM | HOP-18 > 100 µM | SF-539 > 100 µM | SN12C > 100 µM | K562 > 100 µM | COLO 205 > 100 µM | U-251 > 100 µM | KM-20L2 > 100 µM | SNB-19 53 µM
